Read-outs that look alike come from different tables or passages of the source.
Experiments:
Pyrenophora teres = assay: Example A12: Pyrenophora teres / barley / leaf disc preventative (net blotch); type: in vivo; settings: foliar, inoculated 2 days after application, compared to untreated control
[1] = test system: Puccinia recondita f. sp. tritici; type: in vivo; settings: foliar, wheat leaf disc preventative, inoculated 1 day after application, compared to untreated control
[2] = test system: Mycosphaerella graminicola (Septoria tritici); assay: Example A14: Mycosphaerella graminicola (Septoria tritici) / liquid culture (Septoria blotch); type: cell-based; settings: Zymoseptoria tritici; read-out: control of Mycosphaerella graminicola
[3] = test system: Monographella nivalis (Microdochium nivale); assay: Example A6: Monographella nivalis (Microdochium nivale) / liquid culture (foot rot cereals); type: cell-based; settings: read-out: control of Monographella nivalis
[4] = test system: Glomerella lagenarium (Colletotrichum lagenarium); assay: Example A3: Glomerella lagenarium (Colletotrichum lagenarium) / liquid culture (anthracnose); type: cell-based; settings: Colletotrichum orbiculare; read-out: control of Glomerella lagenarium
[5] = test system: Puccinia recondita f. sp. tritici; type: in vivo; settings: foliar, 24 h, wheat leaf disc curative, applied 1 day after inoculation, compared to untreated control
[6] = test system: Magnaporthe grisea (Pyricularia oryzae); assay: whole plant or invertebrate; type: in vivo; settings: foliar, read-out: control of Magnaporthe grisea
Alternaria solani = assay: Example A1: Alternaria solani / tomato / leaf disc (early blight); type: in vivo; settings: foliar, tomato leaf disks inoculated 2 days after application, compared to untreated control
[7] = test system: Mycosphaerella arachidis (Cercospora arachidicola); assay: Example A7: Mycosphaerella arachidis (Cercospora arachidicola) / liquid culture (early leaf spot); type: cell-based; settings: read-out: control of Mycosphaerella arachidis
Phakopsora pachyrhizi = assay: Example A8: Phakopsora pachyrhizi / soybean / preventative (soybean rust); type: in vivo; settings: foliar, soybean leaf disks preventative, inoculated one day after application, compared to untreated control
[8] = test system: Botryotinia fuckeliana (Botrytis cinerea); assay: Example A2: Botryotinia fuckeliana (Botrytis cinerea) / liquid culture (gray mould); type: cell-based; settings: read-out: control of Botryotinia fuckeliana
Excerpt: Example A2: Botryotinia Fuckeliana (Botrytis Cinerea) / Liquid Culture (Gray Mould) Conidia of the fungus from cryogenic storage are directly mixed into nutrient broth (Vogels broth). […] […].38.

Compound | pest or weed control at 200 ppm (Pyrenophora teres) [%] | pest or weed control at 200 ppm [1] [%] | inhibition of growth at 20 ppm [2] [%] | inhibition of growth at 20 ppm [3] [%] | inhibition of growth at 20 ppm [4] [%] | pest or weed control at 200 ppm [5] [%] | pest or weed control at 200 ppm [6] [%] | pest or weed control at 200 ppm (Alternaria solani) [%] | inhibition of growth at 20 ppm [7] [%] | pest or weed control at 200 ppm (Phakopsora pachyrhizi) [%] | inhibition of growth at 20 ppm [8] [%] | pest or weed control at 200 ppm ([6]; 200 ppm) [%] | melting point [°C]
CC(=O)OCC(=O)N(c1cc(F)nc(F)c1)c1nc(C(=O)NC2CCC2(C)C)c(C)s1 (stereo not shown) [X.08, [2-[(2,6-difluoro-4-pyridyl)-[4-[(2,2-dimethylcyclobutyl)carbamoyl]-5-methyl-thiazol-2-yl]amino]-2-oxo-ethyl] acetate] | ≥ 80 | ≥ 80 | ≥ 80 | ≥ 80 | ≥ 80 | ≥ 80 | ≥ 80 | ≥ 80 | ≥ 80 | ≥ 80 |  |  | 
Cc1sc(N(C(=O)COCc2ccccc2)c2cc(F)nc(F)c2)nc1C(=O)NC1CCC1(C)C (stereo not shown) [X.14, 2-[(2-benzyloxyacetyl)-(2,6-difluoro-4-pyridyl)amino]-N-(2,2-dimethylcyclobutyl)-5-methyl-thiazole-4-carboxamide] | ≥ 80 | ≥ 80 | ≥ 80 | ≥ 80 | ≥ 80 | ≥ 80 | ≥ 80 | ≥ 80 |  | ≥ 80 | ≥ 70 |  | 
CCOCC(=O)N(c1cc(F)nc(F)c1)c1nc(C(=O)NC2CCC2(C)C)c(C)s1 (stereo not shown) [X.15, 2-[(2,6-difluoro-4-pyridyl)-(2-ethoxyacetyl)amino]-N-(2,2-dimethylcyclobutyl)-5-methyl-thiazole-4-carboxamide] | ≥ 80 | ≥ 80 | ≥ 80 | ≥ 80 | ≥ 80 | ≥ 80 | ≥ 80 | ≥ 80 |  | ≥ 80 | ≥ 70 |  | 
Cc1sc(N(C(=O)CCl)c2cc(F)nc(F)c2)nc1C(=O)NC1CCC1(C)C (stereo not shown) [X.17, 2-[(2-chloroacetyl)-(2,6-difluoro-4-pyridyl)amino]-N-(2,2-dimethylcyclobutyl)-5-methyl-thiazole-4-carboxamide] | ≥ 80 | ≥ 80 | ≥ 80 | ≥ 80 | ≥ 80 | ≥ 80 | ≥ 80 | ≥ 80 | ≥ 80 | ≥ 80 |  |  | 
COC(=O)CC(=O)N(c1cc(F)nc(F)c1)c1nc(C(=O)NC2CCC2(C)C)c(C)s1 (stereo not shown) [X.18, methyl 3-[(2,6-difluoro-4-pyridyl)-[4-[(2,2-dimethylcyclobutyl)carbamoyl]-5-methyl-thiazol-2-yl]amino]-3-oxo-propanoate] | ≥ 80 | ≥ 80 | ≥ 80 | ≥ 80 | ≥ 80 | ≥ 80 | ≥ 80 | ≥ 80 | ≥ 80 |  |  |  | 
Cc1sc(N(C(=O)CF)c2cc(F)nc(F)c2)nc1C(=O)NC1CCC1(C)C (stereo not shown) [X.27, 2-[(2,6-difluoro-4-pyridyl)-(2-fluoroacetyl)amino]-N-(2,2-dimethylcyclobutyl)-5-methyl-thiazole-4-carboxamide] | ≥ 80 | ≥ 80 | ≥ 80 | ≥ 80 | ≥ 80 | ≥ 80 |  | ≥ 80 | ≥ 80 | ≥ 80 |  | ≥ 80 | 
COCC(=O)N(c1cc(F)nc(F)c1)c1nc(C(=O)NC2CCC2(C)C)c(C)s1 (stereo not shown) [X.29, 2-[(2,6-difluoro-4-pyridyl)-(2-methoxyacetyl)amino]-N-(2,2-dimethylcyclobutyl)-5-methyl-thiazole-4-carboxamide] | ≥ 80 | ≥ 80 | ≥ 80 | ≥ 80 | ≥ 80 | ≥ 80 | ≥ 80 | ≥ 80 | ≥ 80 | ≥ 80 | ≥ 70 |  | 
Cc1sc(N(C=O)c2cc(F)nc(F)c2)nc1C(=O)NC1CCC1(C)C (stereo not shown) [X.33, 2-[(2,6-difluoro-4-pyridyl)-formyl-amino]-N-(2,2-dimethylcyclobutyl)-5-methylthiazole-4-carboxamide] | ≥ 80 | ≥ 80 | ≥ 80 | ≥ 80 | ≥ 80 | ≥ 80 | ≥ 80 | ≥ 80 | ≥ 80 | ≥ 80 | ≥ 70 |  | 
CCOC(=O)C(=O)N(c1cc(F)nc(F)c1)c1nc(C(=O)NC2CCC2(C)C)c(C)s1 (stereo not shown) [X.34, ethyl 2-[(2,6-difluoro-4-pyridyl)-[4-[(2,2-dimethylcyclobutyl)carbamoyl]-5-methyl-thiazol-2-yl]amino]-2-oxo-acetate] | ≥ 80 | ≥ 80 | ≥ 80 | ≥ 80 | ≥ 80 | ≥ 80 | ≥ 80 | ≥ 80 | ≥ 80 | ≥ 80 | ≥ 70 |  | 
Cc1sc(N(C(=O)c2ccccc2)c2cc(F)nc(F)c2)nc1C(=O)NC1CCC1(C)C (stereo not shown) [X.35, 2-[benzoyl-(2,6-difluoro-4-pyridyl)amino]-N-(2,2-dimethylcyclobutyl)-5-methylthiazole-4-carboxamide] | ≥ 80 | ≥ 80 |  | ≥ 80 | ≥ 80 |  | ≥ 80 | ≥ 80 |  | ≥ 80 | ≥ 70 |  | 
CC(=O)N(c1cc(F)nc(F)c1)c1nc(C(=O)NC2CCC2(C)C)c(C)s1 (stereo not shown) [X.36, 2-[acetyl-(2,6-difluoro-4-pyridyl)amino]-N-(2,2-dimethylcyclobutyl)-5-methylthiazole-4-carboxamide] | ≥ 80 | ≥ 80 | ≥ 80 | ≥ 80 | ≥ 80 |  | ≥ 80 | ≥ 80 |  |  | ≥ 70 |  | 
Cc1sc(N(C(=O)C(C)C)c2cc(F)nc(F)c2)nc1C(=O)NC1CCC1(C)C (stereo not shown) [X.38, 2-[(2,6-difluoro-4-pyridyl)-(2-methylpropanoyl)amino]-N-(2,2-dimethylcyclobutyl)-5-methyl-thiazole-4-carboxamide] | ≥ 80 | ≥ 80 |  | ≥ 80 | ≥ 80 | ≥ 80 | ≥ 80 | ≥ 80 |  | ≥ 80 | ≥ 70 |  | 123 to 126

Reference: US20230270114A1, “FUNGICIDAL COMPOSITIONS” (SYNGENTA CROP PROTECTION AG, priority 2020, published 2023)
